For 6 molecules, IC50 results are on record in publication PMC9352109, “Novel silkworm (Bombyx mori) sulfotransferase swSULT ST3 is involved in metabolism of polyphenols from mulberry leaves” (PLoS ONE, 2022).

Molecules are shown by their SMILES.

The target of the assay is T1, AKR2E8 (Bombyx mori, UniProt A0A8D5RRY4).
T1 sequence (A0A8D5RRY4 1-331 limits assumed): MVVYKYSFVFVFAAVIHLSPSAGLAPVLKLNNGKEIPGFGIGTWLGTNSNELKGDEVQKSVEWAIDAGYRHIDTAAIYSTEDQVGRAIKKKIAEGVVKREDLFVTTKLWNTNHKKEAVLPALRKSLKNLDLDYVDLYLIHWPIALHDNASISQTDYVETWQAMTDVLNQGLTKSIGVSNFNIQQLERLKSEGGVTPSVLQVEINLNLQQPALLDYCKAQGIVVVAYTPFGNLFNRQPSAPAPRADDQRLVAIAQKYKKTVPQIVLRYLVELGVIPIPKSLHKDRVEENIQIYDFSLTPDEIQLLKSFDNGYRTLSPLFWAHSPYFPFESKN
As to the kind of experiment: NADPH-linked benzaldehyde reduction. The assay is classed as biochemical. The following applies: 0.1 mM NADPH, 25 μM benzaldehyde, 0.1 M potassium phosphate pH 7.4. An excerpt:
NADPH-linked benzaldehyde reduction on AKR2E8

As usually defined, the IC50 is the concentration at which inhibition is half-maximal. Low values mean greater potency, high ones weaker potency. Consider `O=c1c(-c2ccc(O)cc2)coc2cc(O)cc(O)c12` [Genistein], for which the half-inhibitory concentration (IC50) came out at 18 ± 1.4 nM. In the case of `O=c1cc(-c2ccc(O)cc2)oc2cc(O)cc(O)c12` [Apigenin] it was 170 ± 10 nM; in that of `O=c1c(O)c(-c2ccc(O)cc2)oc2cc(O)cc(O)c12` [Kaempferol], 460 ± 120 nM; in that of `O=c1c(O)c(-c2ccc(O)c(O)c2)oc2cc(O)cc(O)c12` [Quercetin], 65 ± 1.8 nM. Turning to `Oc1ccc(/C=C/c2cc(O)cc(O)c2)cc1` [Resveratrol], the IC50 stood at 550 ± 23 nM. Compared with the last molecule, the IC50 is about 8.5-fold higher. In the case of `O=c1c(-c2ccc(O)cc2)coc2cc(O)ccc12` [Daidzein] it was 34 ± 2.7 nM.
